PubChem BioAssay AID2060901 (Molecular Pharmacology Branch, DTP, NCI, 2025)

Tested on: 422866-222-R5-J1-PDC complex spheroids viability
Assay: Anticancer human tumor 422866-222-R5-J1-PDC patient-derived pancreatic adenocarcinoma cell line growth inhibition [RAS]
Conditions: for IC50: curve of first compound; for viability, T/C: stronger effect = lower value
Summary of the method: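 Tumour cells grown as complex spheroids with HUVEC endothelial cells and mesenchymal stem cells, treated with RAS pathway inhibitor combinations. Each agent spans half-log steps from near clinical Cmax, or 10 microM where Cmax is unknown.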

[1] = second compound 0.00316 µM, first compound 0.0316 µM
[2] = second compound 0.00316 µM, first compound 0.1 µM
[3] = second compound 0.00316 µM, first compound 0.316 µM
[4] = second compound 0.00316 µM, first compound 1 µM
[5] = second compound 0.01 µM, first compound 0.0316 µM
[6] = second compound 0.01 µM, first compound 0.1 µM
[7] = second compound 0.01 µM, first compound 0.316 µM
[8] = second compound 0.01 µM, first compound 1 µM
[9] = second compound 0.0316 µM, first compound 0.0316 µM
[10] = second compound 0.0316 µM, first compound 0.1 µM
[11] = second compound 0.0316 µM, first compound 0.316 µM
[12] = second compound 0.0316 µM, first compound 1 µM
[13] = second compound 0.1 µM, first compound 0.0316 µM
[14] = second compound 0.1 µM, first compound 0.1 µM
[15] = second compound 0.1 µM, first compound 0.316 µM
[16] = second compound 0.1 µM, first compound 1 µM
[17] = second compound 0.316 µM, first compound 0.0316 µM
[18] = second compound 0.316 µM, first compound 0.1 µM
[19] = second compound 0.316 µM, first compound 0.316 µM
[20] = second compound 0.316 µM, first compound 1 µM
[21] = second compound 1 µM, first compound 0.0316 µM
[22] = second compound 1 µM, first compound 0.1 µM
[23] = second compound 1 µM, first compound 0.316 µM
[24] = second compound 1 µM, first compound 1 µM
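Further: spheroids exposed to compounds for 7 days.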
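Wherever viability, T/C is given: 100% = DMSO vehicle control viability.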

In the case of `C[C@@H](NC(=O)c1ncnc(N)c1Cl)c1ncc(C(=O)Nc2cc(C(F)(F)F)c(Cl)cn2)s1` + C=CC(=O)N1CCN(c2nc(OCC3CCCN3C)nc3c(F)c(-c4nc(N)cc(C)c4C(F)(F)F)c(Cl)cc23)C(C)C1, the IC50 (second compound 0.00316 µM) is reported as less than 31.6 nM, the IC50 (second compound 0.01 µM) is reported as less than 31.6 nM and the IC50 (second compound 0.0316 µM) is reported as less than 31.6 nM. It also gave an IC50 (second compound 0.1 µM) of less than 31.6 nM, an IC50 (second compound 0.316 µM) of less than 31.6 nM and an IC50 (second compound 1 µM) of less than 31.6 nM. The viability, T/C [1] was 31.7%, the viability, T/C [2] was 47.2% and the viability, T/C [3] was 31.7%. It also gave a viability, T/C [4] of 29%, a viability, T/C (second compound 0.00316 µM, first compound 3.16 µM) of 32% and a viability, T/C (second compound 0.00316 µM, first compound 10 µM) of 30.6%. It also gave a viability, T/C [5] of 41.5%, a viability, T/C [6] of 32.2% and a viability, T/C [7] of 33.3%. The viability, T/C [8] was 29.2%, the viability, T/C (second compound 0.01 µM, first compound 3.16 µM) was 30% and the viability, T/C (second compound 0.01 µM, first compound 10 µM) was 28.9%. The viability, T/C [9] was 30.8%, the viability, T/C [10] was 30.8% and the viability, T/C [11] was 25.1%. It also gave a viability, T/C [12] of 27.4%, a viability, T/C (second compound 0.0316 µM, first compound 3.16 µM) of 29.5% and a viability, T/C (second compound 0.0316 µM, first compound 10 µM) of 26.7%. For the same compound, the viability, T/C [13] was 30.5%, the viability, T/C [14] was 25% and the viability, T/C [15] was 27.9%. For the same compound, the viability, T/C [16] was 30.3%, the viability, T/C (second compound 0.1 µM, first compound 3.16 µM) was 26.7% and the viability, T/C (second compound 0.1 µM, first compound 10 µM) was 30.5%. The viability, T/C [17] was 28%, the viability, T/C [18] was 24.1% and the viability, T/C [19] was 27.6%. The viability, T/C [20] was 23.1%, the viability, T/C (second compound 0.316 µM, first compound 3.16 µM) was 28.6% and the viability, T/C (second compound 0.316 µM, first compound 10 µM) was 31.8%. The viability, T/C [21] was 27.1%, the viability, T/C [22] was 29.4% and the viability, T/C [23] was 27.2%. It also gave a viability, T/C [24] of 30%, a viability, T/C (second compound 1 µM, first compound 3.16 µM) of 32.1% and a viability, T/C (second compound 1 µM, first compound 10 µM) of 29.4%.

`Nc1ccn(C2OC(CO)C(O)C2(F)F)c(=O)n1` (centres undefined) + C=CC(=O)N1CCN(c2nc(OCC3CCCN3C)nc3c(F)c(-c4nc(N)cc(C)c4C(F)(F)F)c(Cl)cc23)C(C)C1 was tested, and the IC50 (second compound 0.00316 µM) was less than 3.16 nM, the IC50 (second compound 0.01 µM) was less than 3.16 nM and the IC50 (second compound 0.0316 µM) was less than 3.16 nM. For the same compound, the IC50 (second compound 0.1 µM) was less than 3.16 nM, the IC50 (second compound 0.316 µM) was less than 3.16 nM and the IC50 (second compound 1 µM) was less than 3.16 nM. For the same compound, the viability, T/C (second compound 0.00316 µM, first compound 0.00316 µM) was 25.5%, the viability, T/C (second compound 0.00316 µM, first compound 0.01 µM) was 26.6% and the viability, T/C [1] was 21.8%. It also gave a viability, T/C [2] of 18.7%, a viability, T/C [3] of 14.8% and a viability, T/C [4] of 14.9%. The viability, T/C (second compound 0.01 µM, first compound 0.00316 µM) was 26.6%, the viability, T/C (second compound 0.01 µM, first compound 0.01 µM) was 22.7% and the viability, T/C [5] was 21.7%. It also gave a viability, T/C [6] of 15.7%, a viability, T/C [7] of 15.3% and a viability, T/C [8] of 17%. For the same compound, the viability, T/C (second compound 0.0316 µM, first compound 0.00316 µM) was 27.5%, the viability, T/C (second compound 0.0316 µM, first compound 0.01 µM) was 19.9% and the viability, T/C [9] was 19.3%. For the same compound, the viability, T/C [10] was 16.9%, the viability, T/C [11] was 15.9% and the viability, T/C [12] was 14.1%. For the same compound, the viability, T/C (second compound 0.1 µM, first compound 0.00316 µM) was 21.9%, the viability, T/C (second compound 0.1 µM, first compound 0.01 µM) was 21.6% and the viability, T/C [13] was 18.6%. It also gave a viability, T/C [14] of 16.4%, a viability, T/C [15] of 14.8% and a viability, T/C [16] of 14.6%. For the same compound, the viability, T/C (second compound 0.316 µM, first compound 0.00316 µM) was 24.8%, the viability, T/C (second compound 0.316 µM, first compound 0.01 µM) was 20.4% and the viability, T/C [17] was 20%. For the same compound, the viability, T/C [18] was 18.1%, the viability, T/C [19] was 16.7% and the viability, T/C [20] was 17.4%. The viability, T/C (second compound 1 µM, first compound 0.00316 µM) was 22.9%, the viability, T/C (second compound 1 µM, first compound 0.01 µM) was 19.7% and the viability, T/C [21] was 19%. For the same compound, the viability, T/C [22] was 14.2%, the viability, T/C [23] was 18% and the viability, T/C [24] was 17.4%.
